Assay results from US10065990B2, “Cyclic peptide compound, and preparation method, pharmaceutical composition and use thereof” (HANGZHOU GUANYU BIO-MEDICAL CO., LTD, priority 2013, dated 2018).
Like-named read-outs stand apart in the source and are kept apart here.

Assays:
[1] = target: HDAC1 (Homo sapiens, UniProt Q13547); assay: HDAC biochemical activity measurement (fluorescent substrate deacetylation);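 further: fluorogenic acetyl-lysine substrate (20 µM) deacetylated by HDAC1, then developer releases fluorophore read at 360 nm excitation and 460 nm emission, inhibitor incubated 30 min at 37 °C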; conditions: HDAC1; 37° C. 30 minutes; read-out: IC50 HDAC1
Sequence of HDAC1 (Q13547 whole entry, species assumed): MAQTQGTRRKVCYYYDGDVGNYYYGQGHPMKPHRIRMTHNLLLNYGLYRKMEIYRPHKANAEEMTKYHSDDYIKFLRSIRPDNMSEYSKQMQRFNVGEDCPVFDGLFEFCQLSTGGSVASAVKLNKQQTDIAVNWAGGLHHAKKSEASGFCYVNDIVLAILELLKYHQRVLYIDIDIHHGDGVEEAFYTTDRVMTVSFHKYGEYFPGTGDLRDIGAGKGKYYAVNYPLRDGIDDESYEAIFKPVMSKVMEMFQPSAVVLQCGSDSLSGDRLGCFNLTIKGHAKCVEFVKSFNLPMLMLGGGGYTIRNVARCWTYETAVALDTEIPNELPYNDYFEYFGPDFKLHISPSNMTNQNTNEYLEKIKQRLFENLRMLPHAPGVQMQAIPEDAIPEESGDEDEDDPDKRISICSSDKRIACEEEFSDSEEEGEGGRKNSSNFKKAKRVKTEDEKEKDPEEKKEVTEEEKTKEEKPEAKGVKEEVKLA

[2] = target: HDAC2 (Homo sapiens, UniProt Q92769); assay: as above; conditions: 37° C. 30 minutes;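 further: HDAC2 enzyme with an acetyl-lysine fluorescent substrate, then developer added, fluorescence read at excitation 360 nm and emission 460 nm, inhibition measured across several compound concentrations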
Sequence of HDAC2 (Q92769 whole entry, species assumed): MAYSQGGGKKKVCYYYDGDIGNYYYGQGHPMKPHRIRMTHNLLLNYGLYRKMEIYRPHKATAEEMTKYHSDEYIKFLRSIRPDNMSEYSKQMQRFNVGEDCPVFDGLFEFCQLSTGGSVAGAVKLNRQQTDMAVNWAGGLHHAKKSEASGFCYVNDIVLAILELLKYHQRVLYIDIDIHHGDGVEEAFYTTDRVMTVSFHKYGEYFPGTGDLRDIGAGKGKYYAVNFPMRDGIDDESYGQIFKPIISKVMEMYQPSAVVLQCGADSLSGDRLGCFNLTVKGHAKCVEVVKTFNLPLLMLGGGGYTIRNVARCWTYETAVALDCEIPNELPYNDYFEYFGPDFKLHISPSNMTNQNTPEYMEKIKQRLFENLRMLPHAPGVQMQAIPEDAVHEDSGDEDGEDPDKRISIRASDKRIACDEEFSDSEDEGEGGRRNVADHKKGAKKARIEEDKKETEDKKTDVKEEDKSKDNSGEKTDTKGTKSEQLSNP

[3] = target: T1, HDAC7 (Homo sapiens, UniProt Q8WUI4); assay: as above; conditions: HDAC7; 37° C. 30 minutes;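 further: fluorogenic deacetylation assay using acetyl-lysine substrate at 20 µM, enzyme and compound incubated 30 min at 37 °C, then developer added, fluorescence read at 360/460 nm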
T1 sequence (Q8WUI4 1-952): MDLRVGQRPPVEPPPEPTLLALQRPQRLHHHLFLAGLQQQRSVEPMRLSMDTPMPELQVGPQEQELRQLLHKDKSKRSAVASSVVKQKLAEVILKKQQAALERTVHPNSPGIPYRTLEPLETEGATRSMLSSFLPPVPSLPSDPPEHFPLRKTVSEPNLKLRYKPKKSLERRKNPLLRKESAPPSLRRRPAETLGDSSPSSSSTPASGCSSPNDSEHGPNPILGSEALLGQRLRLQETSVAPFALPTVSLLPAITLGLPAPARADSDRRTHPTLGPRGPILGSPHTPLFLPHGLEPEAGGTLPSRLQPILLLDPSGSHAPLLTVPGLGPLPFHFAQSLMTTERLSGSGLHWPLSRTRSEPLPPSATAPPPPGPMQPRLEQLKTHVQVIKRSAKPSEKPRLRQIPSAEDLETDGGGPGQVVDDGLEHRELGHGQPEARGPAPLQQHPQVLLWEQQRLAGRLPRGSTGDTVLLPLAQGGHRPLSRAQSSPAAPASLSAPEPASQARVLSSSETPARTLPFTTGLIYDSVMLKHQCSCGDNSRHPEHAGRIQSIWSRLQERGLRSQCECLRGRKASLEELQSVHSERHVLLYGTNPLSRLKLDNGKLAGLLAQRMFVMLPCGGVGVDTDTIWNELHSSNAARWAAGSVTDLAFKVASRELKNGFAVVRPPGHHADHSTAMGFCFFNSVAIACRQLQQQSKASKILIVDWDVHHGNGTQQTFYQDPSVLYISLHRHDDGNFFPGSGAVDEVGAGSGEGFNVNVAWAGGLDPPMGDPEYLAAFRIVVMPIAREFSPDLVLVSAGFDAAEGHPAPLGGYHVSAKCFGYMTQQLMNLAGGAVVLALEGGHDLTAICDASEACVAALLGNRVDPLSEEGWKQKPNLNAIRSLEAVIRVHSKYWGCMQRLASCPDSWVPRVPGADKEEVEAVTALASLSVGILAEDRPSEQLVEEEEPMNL

[4] = test system: A549 (human lung cancer cells); assay: MTT cancer cell growth inhibition; assay type: cell-based; conditions: A549 cells, MTT, 72 hours incubation, read-out: GI50 A54
Outline: (§1)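 GI50 values come from MTT viability: after 72 h compound exposure (final 10^−5–10^−10 M, three wells each) of cells plated overnight at 1500/well in 10% FBS medium, MTT was given for 4 h. The DMSO-solubilised formazan was then measured at 570 nm.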

[5] = test system: BGC-823 (human gastric cancer cells); assay: MTT cancer cell growth inhibition; assay type: cell-based; conditions: BGC-823 cells, MTT, 72 hours incubation, read-out: GI50 BG
Outline: as §1

[6] = test system: Bel-7402 (human hepatoma cells); assay: MTT cancer cell growth inhibition; assay type: cell-based; conditions: MTT, 72 hours incubation, Bel-7402 cells, read-out: GI50 Bel-7402
Outline: as §1

[7] = test system: DU145 (human prostate cancer cells); assay: MTT cancer cell growth inhibition; assay type: cell-based; conditions: DU145 cells, MTT, 72 hours incubation, read-out: GI50 Du1
Outline: as §1

[8] = test system: HT1080 (human fibrosarcoma cells); assay: MTT cancer cell growth inhibition; assay type: cell-based; conditions: HT1080 cells, MTT, 72 hours incubation, read-out: GI50 HT1
Outline: as §1

[9] = test system: Hela (human cervical cancer cells); assay: MTT cancer cell growth inhibition; assay type: cell-based; conditions: Hela cells, MTT, 72 hours incubation, read-out: GI50 Hela
Outline: as §1

[10] = test system: Huh-7 (human hepatoma cells); assay: MTT cancer cell growth inhibition; assay type: cell-based; conditions: MTT, 72 hours incubation, Huh-7 cells, read-out: GI50 Huh-7
Outline: as §1

[11] = test system: KBM5-T315I (human chronic myelogenous leukemia); assay: MTT cancer cell growth inhibition; assay type: cell-based; conditions: MTT, 72 hours incubation, KBM5-T315I cells, read-out: GI50 KBM5-T315I
Outline: as §1

[12] = test system: MCF-7 (human breast cancer cells); assay: MTT cancer cell growth inhibition; assay type: cell-based; conditions: MCF-7 cells, 72 hours incubation, read-out: GI50 MCF
Outline: as §1

[13] = test system: MDA-MB-231 (breast cancer cells); assay: MTT cancer cell growth inhibition; assay type: cell-based
Outline: as §1

[14] = test system: MOLT-4 (human acute lymphoblastic leukemia cells); assay: MTT cancer cell growth inhibition; assay type: cell-based; conditions: MOLT-4 cells, MTT, 72 hours incubation, read-out: GI50 Mol
Outline: as §1

[15] = test system: SGC-7901 (human gastric cancer cells); assay: MTT cancer cell growth inhibition; assay type: cell-based; conditions: MTT, 72 hours incubation, SGC-7901 cells, read-out: GI50 SGC-7901
Outline: as §1

[16] = test system: U937 (human leukemia cells); assay: MTT cancer cell growth inhibition; assay type: cell-based; conditions: U937 cells, MTT, 72 hours incubation, read-out: GI50 U93
Outline: as §1

[17] = Homo sapiens, MDA-MB-231, 72 h, read-out: GI50 MDA-MB-231, MTT, 72 hours incubation, MDA-MB-231 cells
[18] = read-out: GI50 MDA-MB-231, MTT, 72 hours incubation, MDA-MB-231 cells

| Compound | IC50 [1] | IC50 [2] | IC50 HDAC7 [3] | GI50 ([4]; Homo sapiens, A549, 72 h) | GI50 ([5]; Homo sapiens, BGC-823, 72 h) | GI50 ([6]; Homo sapiens, Bel-7402, 72 h) | GI50 ([7]; Homo sapiens, DU-145, 72 h) | GI50 ([8]; Homo sapiens, HT-1080, 72 h) | GI50 ([9]; Homo sapiens, HeLa, 72 h) | GI50 ([10]; Homo sapiens, Huh-7, 72 h) | GI50 ([11]; Homo sapiens, 72 h) | GI50 ([12]; Homo sapiens, MCF7, 72 h) | GI50 [13, 17] | GI50 ([14]; Homo sapiens, MOLT-4, 72 h) | GI50 ([15]; Homo sapiens, SGC-7901, 72 h) | GI50 ([16]; Homo sapiens, U-937, 72 h) | GI50 [4] | GI50 [5] | GI50 [6] | GI50 [7] | also measured |
| --- | --- | --- | --- | --- | --- | --- | --- | --- | --- | --- | --- | --- | --- | --- | --- | --- | --- | --- | --- | --- | --- |
| C/C=C1\NC(=O)c2cc(SC)cc(n2)CNC(=O)C[C@@H](/C=C/CCSC(C)=O)OC(=O)[C@H](CCCCN)NC1=O [Compound 193] | 43 nM | 25 nM | no activity | 40 nM | 30 nM | 35 nM | 30 nM | 10 nM | 430 nM | 33 nM | 41 nM | 70 nM | 43 nM | 40 nM | 73 nM | 50 nM | – | – | – | – | – |
| C=C1NC(=O)c2cc(SC)cc(n2)CNC(=O)C[C@@H](/C=C/CCSC(C)=O)OC(=O)[C@H](C(C)C)NC1=O [Compound 205] | 91 nM | 52 nM | no activity | 50 nM | 50 nM | 56 nM | 60 nM | 10 nM | 70 nM | 47 nM | 27 nM | 70 nM | 39 nM | 50 nM | 59 nM | 40 nM | – | – | – | – | – |
| C/C=C1\NC(=O)c2nc(cc(SC)n2)CNC(=O)C[C@@H](/C=C/CCSC(C)=O)OC(=O)[C@H](C(C)C)NC1=O [Compound 216] | 155 nM | 33 nM | no activity | – | – | – | – | – | – | – | – | – | – | – | – | – | 80 nM | 60 nM | 23 nM | 20 nM | GI50 [8]: 50 nM; GI50 [9]: 70 nM; GI50 [10]: 49 nM; GI50 [11]: 36 nM; GI50 [12]: 50 nM; GI50 [13, 18]: 62 nM; GI50 [14]: 40 nM; GI50 [15]: 38 nM; GI50 [16]: 80 nM |
| C/C=C1\NC(=O)c2ncc(SC)c(n2)CNC(=O)C[C@@H](/C=C/CCSC(C)=O)OC(=O)[C@H](C(C)C)NC1=O [Compound 217] | 35 nM | 43 nM | no activity | – | – | – | – | – | – | – | – | – | – | – | – | – | 70 nM | 30 nM | 37 nM | 20 nM | GI50 [8]: 20 nM; GI50 [9]: 10 nM; GI50 [10]: 19 nM; GI50 [11]: 83 nM; GI50 [12]: 60 nM; GI50 [13, 18]: 19 nM; GI50 [14]: 90 nM; GI50 [15]: 28 nM; GI50 [16]: 90 nM |
